Data from ChEMBL document CHEMBL3085743, “6-(1-Benzyl-1H-pyrrol-2-yl)-2,4-dioxo-5-hexenoic acids as dual inhibitors of recombinant HIV-1 integrase and ribonuclease H, synthesized by a parallel synthesis approach” (J Med Chem, 2013).

Assays:
[1] = target: Human immunodeficiency virus type 1 integrase (Human immunodeficiency virus 1, UniProt Q7ZJM1)
Description: Inhibition of strand transfer activity of recombinant HIV1 integrase using 5'-end-labeled 21-mer double-stranded DNA as substrate after 60 mins by electrochemiluminescent plate-based assay

[2] = target: Human immunodeficiency virus type 1 reverse transcriptase (Human immunodeficiency virus 1, UniProt Q72547)
Description: Inhibition of RNase H activity of recombinant HIV1 reverse transcriptase using poly(dC)-[3H]poly(rG) as substrate

Human immunodeficiency virus type 1 integrase, sequence (Q7ZJM1 whole entry): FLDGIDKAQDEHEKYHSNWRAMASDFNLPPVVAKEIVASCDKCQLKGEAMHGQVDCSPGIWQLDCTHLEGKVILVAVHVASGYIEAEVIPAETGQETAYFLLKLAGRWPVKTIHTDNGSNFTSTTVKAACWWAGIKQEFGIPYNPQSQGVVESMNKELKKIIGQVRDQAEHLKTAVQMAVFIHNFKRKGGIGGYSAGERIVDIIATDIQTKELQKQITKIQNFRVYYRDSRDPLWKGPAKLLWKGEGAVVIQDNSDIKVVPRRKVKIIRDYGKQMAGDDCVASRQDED

Structure (SMILES)	IC50 [1]	IC50 [2]
O=C(/C=C/c1cccn1Cc1cc(F)ccc1F)CC(=O)C(=O)O	0.052 µM	5 µM
O=C(/C=C/c1cccn1Cc1ccc(F)cc1)CC(=O)C(=O)O	0.026 µM	2.5 µM
CCOC(=O)C(=O)CC(=O)/C=C/c1cccn1Cc1cc(F)ccc1F	0.45 µM	9 µM
CCOC(=O)C(=O)CC(=O)/C=C/c1cccn1Cc1ccc(OC)cc1		6.7 µM
O=C(/C=C/c1cccn1Cc1cc(Cl)cc(Cl)c1)CC(=O)C(=O)O	0.97 µM	30 µM
O=C(/C=C/c1cccn1Cc1ccc(Cl)cc1Cl)CC(=O)C(=O)O	4.9 µM	7 µM
CCOC(=O)C(=O)CC(=O)/C=C/c1cccn1Cc1c(Cl)cccc1Cl	1.7 µM	22 µM
Cc1cc(C)cc(Cn2cccc2/C=C/C(=O)CC(=O)C(=O)O)c1	1.6 µM	16 µM
Cc1ccc(Cn2cccc2/C=C/C(=O)CC(=O)C(=O)O)cc1		17 µM
O=C(/C=C/c1cccn1Cc1ccccc1)CC(=O)C(=O)O		15 µM
CCOC(=O)C(=O)CC(=O)/C=C/c1cccn1Cc1cccc(F)c1	11 µM	9 µM
COc1ccc(Cn2cccc2/C=C/C(=O)CC(=O)C(=O)O)cc1		3 µM
CCOC(=O)C(=O)CC(=O)/C=C/c1cccn1Cc1ccccc1OC	23 µM	> 100 µM
CCOc1ccccc1Cn1cccc1/C=C/C(=O)CC(=O)C(=O)O	0.31 µM	64 µM
CCOC(=O)C(=O)CC(=O)/C=C/c1cccn1Cc1cc(F)cc(F)c1	0.49 µM	5 µM
CCOC(=O)C(=O)CC(=O)/C=C/c1cccn1Cc1ccc(C)cc1		7.3 µM
CCOC(=O)C(=O)CC(=O)/C=C/c1cccn1Cc1c(F)cccc1F	4 µM	19 µM
O=C(/C=C/c1cccn1Cc1ccc(F)c(F)c1)CC(=O)C(=O)O	1.6 µM	86 µM
CCOC(=O)C(=O)CC(=O)/C=C/c1cccn1Cc1ccc(Cl)cc1		8 µM
CCOC(=O)C(=O)CC(=O)/C=C/c1cccn1Cc1ccccc1F	1 µM	6.3 µM
O=C(/C=C/c1cccn1Cc1c(Cl)cccc1Cl)CC(=O)C(=O)O	0.17 µM	28 µM
Cc1cccc(Cn2cccc2/C=C/C(=O)CC(=O)C(=O)O)c1	1.3 µM	4.6 µM
CCOC(=O)C(=O)CC(=O)/C=C/c1cccn1Cc1ccccc1OCC	12 µM	> 100 µM
O=C(/C=C/c1cccn1Cc1ccc(Cl)cc1)CC(=O)C(=O)O	4.1 µM	5 µM

Structure (SMILES)	IC50 [1]	IC50 [2]
CCOC(=O)C(=O)CC(=O)/C=C/c1cccn1Cc1cc(Cl)cc(Cl)c1	8 µM	
O=C(/C=C/c1cccn1Cc1ccccc1F)CC(=O)C(=O)O	0.98 µM	6.4 µM
CCOC(=O)C(=O)CC(=O)/C=C/c1cccn1Cc1cccc(C)c1	8 µM	9.6 µM
CCOC(=O)C(=O)CC(=O)/C=C/c1cccn1Cc1ccc(Cl)cc1Cl	> 111 µM	9 µM
CCOC(=O)C(=O)CC(=O)/C=C/c1cccn1Cc1ccccc1C	32 µM	3 µM
CCOC(=O)C(=O)CC(=O)/C=C/c1cccn1Cc1cc(C)cc(C)c1	19 µM	6 µM
N#Cc1ccc(Cn2cccc2/C=C/C(=O)CC(=O)C(=O)O)cc1	1.7 µM	6 µM
CCOC(=O)C(=O)CC(=O)/C=C/c1cccn1Cc1cccc(C#N)c1	13 µM	5 µM
CCOC(=O)C(=O)CC(=O)/C=C/c1cccn1Cc1cccc(F)c1F	0.53 µM	8 µM
O=C(/C=C/c1cccn1Cc1cccc(F)c1F)CC(=O)C(=O)O	0.059 µM	6 µM
N#Cc1ccccc1Cn1cccc1/C=C/C(=O)CC(=O)C(=O)O	6 µM	6 µM
O=C(/C=C/c1cccn1Cc1cc(F)cc(F)c1)CC(=O)C(=O)O	1.2 µM	14 µM
CCOC(=O)C(=O)CC(=O)/C=C/c1cccn1Cc1cccc(Cl)c1	6 µM	19 µM
O=C(/C=C/c1cccn1Cc1c(F)cccc1F)CC(=O)C(=O)O	0.15 µM	50 µM
CCOC(=O)C(=O)CC(=O)/C=C/c1cccn1Cc1ccccc1C#N	9 µM	32 µM
CCOC(=O)C(=O)CC(=O)/C=C/c1cccn1Cc1ccc(C#N)cc1	> 111 µM	8 µM
COc1ccccc1Cn1cccc1/C=C/C(=O)CC(=O)C(=O)O	0.53 µM	16 µM
O=C(/C=C/c1cccn1Cc1cccc(Cl)c1)CC(=O)C(=O)O	0.31 µM	9 µM
Cc1ccccc1Cn1cccc1/C=C/C(=O)CC(=O)C(=O)O	0.17 µM	26 µM
CCOC(=O)C(=O)CC(=O)/C=C/c1cccn1Cc1ccc(F)cc1F	1 µM	19 µM
O=C(/C=C/c1cccn1Cc1ccc(F)cc1F)CC(=O)C(=O)O	0.042 µM	10 µM
N#Cc1cccc(Cn2cccc2/C=C/C(=O)CC(=O)C(=O)O)c1	0.75 µM	5 µM
O=C(/C=C/c1cccn1Cc1cccc(F)c1)CC(=O)C(=O)O	0.92 µM	14 µM
